The values below come from patent publication US20070167412A1, “HALOCOMBSTATINS AND METHODS OF SYNTHESIS THEREOF” (ARIZONA BOARD OF REGENTS, priority 2003, published 2007).

Assay [1] relates to KAT-4. In words: human anaplastic thyroid carcinoma cell line inhibition. Type of assay: cell-based. The following applies: Homo sapiens, KAT-4. How it is done: (§1) Inhibition of human cancer cell growth was assessed using the National Cancer Institute's standard sulforhodamine B assay. After 48 hours, the plates were fixed with trichloracetic acid, stained with sulforhodamine B and read with an automated microplate reader. A growth inhibition of 50% (GI50 or the drug concentration causing a 50% reduction in the net protein increase) was calculated from optical density data with Inmunosoft software. Inhibition of the mouse leukemia P388 cells was assessed in a 10% horse serum/Fisher medium soution for 24 hours, followed by a 48 hour incubation with serial dilutions of the compounds. Cell growth inhibition (ED50) was then calculated using a Z1 Becleman/Coulter particle counter.

Assay [2] has as its system SW1736. Described as above. Type of assay: cell-based. The following applies: Homo sapiens, SW-1736. As to the method:
as §1

Assay [3] concerns human umbilical vein endothelial cells (HUVEC). Briefly: Matrigel cord formation assay. Type of assay: cell-based. On the set-up: key: −: No Junctions; +: Few; ++: ˜50% of Control; +++: Same as Control. The following applies: 24 hours, compared to untreated controls. As to the method:
In vitro Matrigel antiangiogenesis assays were implemented according to the Developmental Therapeutics Program NCI/NIH protocols known to one of skill in the art. Matrigel, a basement membrane matrix, was obtained from BD Biosciences. Growth inhibition and cord formation assays were Conducted using human umbilical vein endothelial cells obtained from GlycoTeCh. HUVEC cells were grown in EGM-2 medium.
An aliquot of sixty microliters was placed in each well of an ice-cold 96-well plate. The plates were then left for 15 minutes at room temperature, then incubated for 30 minutes at 37° C. to permit the matrigel to polymerize. Meanwhile, HUVEC cells were harvested and diluted to a concentration of 2×10^5 cells/ml. A solution of 100 μL containing the compounds to be tested was added next. After 24 hours incubation, pictures were taken for each concentration using an inverted Nikon Diaphot microscope and D100 digital camera. Drug effect was assessed, compared to untreated controls, by measuring the length of cords formed and number ofjunctions.

Assay [4] has the same test system. In words: Matrigel cord formation assay. Type of assay: cell-based. Set-up: key to Lengths of Cords: −: No Cords; +: Small; ++: ˜50% of Control; +++: Same as Control. The following applies: 24 hours, compared to untreated controls. A digest of the protocol:
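HUVEC grown in EGM-2, seeded at 2×10^5 cells/ml onto polymerized Matrigel with test compounds. After 24 hours, cord length and junction number imaged and measured relative to untreated controls.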

In assay [5] the test system is T1, purified tubulin.
T1 construct: other: 10 μM tubulin, GTP 0.4 mM, 30° C., extent after 20 minutes
Briefly: inhibition of tubulin polymerization (turbidimetry). Type of assay: biochemical. The following applies: 10 μM tubulin, GTP 0.4 mM, 30° C., extent after 20 minutes; read-out: Inhibition of polymerization IC50 ± S.D. The gist of the method:
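Drug at varying concentrations preincubated with 10 μM […] purified tubulin, chilled on ice, then 0.4 mM GTP added and polymerization followed at 30 °C by turbidity at 350 nm. Extent of reaction after 20 min was the measured parameter.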

Values after ≈ are worked out from the molar mass of the structure shown.

With `COc1ccc(/C=C\c2cc(I)c(OC)c(OC)c2)cc1O` [Compound 14a, 3-Iodo-4,4′,5-trimethoxy-3′-hydroxy-z-stilbene], the GI50 (as a rule, the concentration that inhibits growth by half) in assay [1] is 0.089 to 0.14 µg/mL (≈ 0.216 to 0.34 µM); in assay [2], 2.2 µg/mL (≈ 5.34 µM). The Number of junctions result was “+” in assay [3] (0.001 μg/ml) and “−” in assay [3] (0.01 μg/ml). In addition, the “Lengths of Cords” value in assay [4] (0.001 μg/ml) is given as “+”; in assay [4] (0.01 μg/ml), “−”. Also, in assay [5], the IC50 (commonly the concentration needed to halve the response being measured) is 1600 ± 200 nM.
